Source: patent US10398155B2, “Animal feed comprising a combination of mono glycerides” (Proviron Holding N.V., priority 2013, dated 2019)

System: Broiler chicken
Assay: Broiler growth test over 42 days with additives in animal feed or drinking water (AEW, FCR)
Type: in vivo
Settings: for D 0-42 AEW (average final weight of the broilers at day 42): Poor Feed day 0-13 then Rich Feed to day 42, average of 5 pens; for Ranking AEW 42 / Ranking FCR 42: compared to Rich feed standard test = 100%; for D 0-42 FCR (conversion of feed to chicken weight): lower is better
Method: Broiler chicken were grown during 42 days, with and without the abovementioned compositions being added to either the animal feed, or the drinking water.
By the end of the test period of 42 days, the final weight of the broiler was determined, this is the AEW (Average End Weight), as well as the degree of conversion of feed to chicken weight, this is the FCR (Feed Conversion Rate). The latter parameter indicates the amount of feed a broiler chicken should eat per kilogram of final weight of the animal. The lower this parameter, the more efficient the chicken has been fed. This parameter is influenced by the way the animal feed is digested by the intestinal tract or metabolism of the chicken, but also by the way the feed offered to the chicken is effectively accepted by the animal. The latter to a large extent is determined by the taste of the feed offered. To the extent the taste of the feed offered is positively acknowledged by the chicken, less feed is removed by the animal; so dependent on the taste of the feed, more or less of the feed is discarded by the chicken.
The tests were performed on groups of each time 20 broilers for each pen.
Each test was repeated on each time five pens, so each test was performed on in total 100 broilers.
Each value represents an average amount of the results obtained for each set of the five pens.
It is then added to the feed as a powdery compound. In practice it is much easier to mix such a powdery composition with the animal feed, as compared to the addition of a fluid to the feed. • The next two columns show the results of the test, expressed as final weight of the animal, in this case a broiler chicken. • The column with the heading D 0-42 AEW denotes the average final weight of the broilers at day 42 (Average End Weight). The higher the value for this parameter, the better. • The column with the title Ranking AEW 42 denotes, expressed as a percentage, the result of the test in terms of AEW, as compared to the standard test, corresponding to a standard value set at 100%. • The last two columns set forth the results of the test, expressed differently, namely as a measure for the conversion of the feed in meat-resp. increase of weight of the animal, as set forth above. • The column with the title D 0-42 FCR denotes the average value of the conversion of feed to weight of the animal. The lower the value for this parameter, the better. The lower the value, the more efficient the conversion of feed into animal meat has been performed. • The column with the heading Ranking FCR 42 denotes, expressed as a percentage, the result of the test with respect to FCR, as compared to the standard test, which has been allocated the value of 100%.
The feed that has been fed to the broilers in the various tests comprises two different embodiments: • a first type of feed is the so-called ‘Poor Feed’: this is a normal, customary feed that is being fed to the broilers, whereby no forced growth and feed conversion is to be expected, and whereby also no particular duty on the intestinal tract of the broilers is imposed. Differently phrased, the broilers have no difficulty in digesting this feed, and the younger broilers grow in a normal path to fully-grown adult animals. • a second type of feed is the so-called ‘Rich Feed’: this is a feed particularly high in energy and proteins, to which a component has been added that results in a more viscous intestine content. The result of the use of this type of feed is that the growth of the broilers is intensified, but it also results in a heavier load on the intestinal tract. So the intestines of the broilers should work harder to fully digest the feed absorbed by the animal. In this case the risk of disturbing the bacterial balance in the intestinal tract is substantially higher. Such an imbalance in bacteria (dysbacteriosis) may be a cause of diseases with resulting adverse effects. […]

[1] = via drinking water, dosage 2.22 Kg/Ton
[2] = TVN 5 mg/KgLW via drinking water, dosage 0.04 Kg/Ton

CCCCCCCCCCCC(=O)OCC(O)CO (centres unmarked) [Comp 1, monolaurin] was tested, and the “D 0-42 AEW (average final weight of the broilers at day 42)” value (“D 0-42 AEW” for short) (dosage 1.2 Kg/Ton of feed) was 2.55 kg, the “Ranking AEW 42” value (dosage 1.2 Kg/Ton of feed) was 97% and the “Ranking FCR 42” value (dosage 1.2 Kg/Ton of feed) was 104.6%. For the same molecule, the “D 0-42 FCR (conversion of feed to chicken weight)” value (shortened to “D 0-42 FCR”) (dosage 1.2 Kg/Ton of feed, day 0-42) was 1.74, the “D 0-42 AEW” value (dosage 2.4 Kg/Ton of feed) was 2.65 kg and the “Ranking AEW 42” value (dosage 2.4 Kg/Ton of feed) was 101%. For the same molecule, the “Ranking FCR 42” value (dosage 2.4 Kg/Ton of feed) was 101.3% and the “D 0-42 FCR” value (dosage 2.4 Kg/Ton of feed, day 0-42) was 1.69.
CCCC(=O)OCC(O)CO (centres unmarked) [Comp 4, monobutyrin] was tested, and the “D 0-42 AEW” value (dosage 2 Kg/Ton of feed) was 2.68 kg, the “Ranking AEW 42” value (dosage 2 Kg/Ton of feed) was 102% and the “Ranking FCR 42” value (dosage 2 Kg/Ton of feed) was 97.9%. For the same molecule, the “D 0-42 FCR” value (dosage 2 Kg/Ton of feed, day 0-42) was 1.63, the “D 0-42 AEW” value (dosage 4 Kg/Ton of feed) was 2.63 kg and the “Ranking AEW 42” value (dosage 4 Kg/Ton of feed) was 100%. The “Ranking FCR 42” value (dosage 4 Kg/Ton of feed) was 101.9%, the “D 0-42 FCR” value (dosage 4 Kg/Ton of feed, day 0-42) was 1.70 and the “D 0-42 AEW” value [1] was 2.65 kg. For the same molecule, the “Ranking AEW 42” value [1] was 101%, the “Ranking FCR 42” value [1] was 98.6% and the “D 0-42 FCR” value (via drinking water, dosage 2.22 Kg/Ton, day 0-42) was 1.64.
With CC[C@H]1OC(=O)C[C@@H](OC(C)=O)[C@H](C)[C@@H](O[C@@H]2O[C@H](C)[C@@H](O[C@H]3C[C@@](C)(O)[C@@H](OC(=O)CC(C)C)[C@H](C)O3)[C@H](N(C)C)[C@H]2O)[C@@H](CC=O)C[C@@H](C)C(=O)/C=C/C(C)=C/[C@@H]1CO[C@@H]1O[C@H](C)[C@@H](O)[C@@H](OC)[C@H]1OC [Ref 3, Tylvalosin] the “average increase in weight per day of the broilers” value (Rich Feed with addition of TVN) was 66.3 gr, the “D 0-42 AEW” value [2] was 2.79 kg and the “Ranking AEW 42” value [2] was 106%. For the same molecule, the “Ranking FCR 42” value [2] was 96.6%, the “Ranking AEW 42” value (TVN 5 mg/KgLW via drinking water, dosage 0.04 Kg/Ton, listed as Tylvalosin) was 105.53% and the “D 0-42 FCR” value (TVN 5 mg/KgLW via drinking water, dosage 0.04 Kg/Ton, entire period day 0-42) was 1.61.
